Counter-ions that a name gives are not always drawn.
target: T1, angiotensin II receptor (Oryctolagus cuniculus, UniProt P34976); assay: Angiotensin II receptor antagonistic activity: inhibition of angiotensin II-induced contraction of isolated rabbit thoracic aorta; format: cell-based; details: isolated rabbit thoracic aorta contracted by angiotensin II; from dose-response curve (Schild)
T1 construct: Rabbit aorta thoracic is isolated; from tissue; host or cells: isolated rabbit thoracic aorta
T1 sequence (P34976 1-359): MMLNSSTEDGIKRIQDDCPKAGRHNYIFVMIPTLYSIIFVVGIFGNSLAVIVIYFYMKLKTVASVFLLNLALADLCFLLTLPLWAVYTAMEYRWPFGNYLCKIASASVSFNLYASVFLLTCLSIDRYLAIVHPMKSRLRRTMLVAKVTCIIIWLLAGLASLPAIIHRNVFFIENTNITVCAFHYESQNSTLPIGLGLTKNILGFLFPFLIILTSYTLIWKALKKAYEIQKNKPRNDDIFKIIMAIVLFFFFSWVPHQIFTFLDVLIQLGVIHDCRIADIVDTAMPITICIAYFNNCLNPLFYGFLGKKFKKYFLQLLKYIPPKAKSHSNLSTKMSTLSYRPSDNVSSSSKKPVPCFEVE
From the text: Angiotensin II receptor antagonistic activity experiments are carded out according to P. C. Wong et al. (Hypertension. 15, 823 (1990)).
Rabbit aorta thoracic is isolated, contracted by angiotensin II. The inhibition of contraction by the compound (1) is expressed as pA2 from dose-response curve (Schild, Brit. J. Pharmacol. 14, 48 (1959)).

Compound | pA2
Cc1nc2ccccc(=O)c2n1Cc1ccc(-c2ccccc2-c2nn[nH]n2)cc1 [Compound 1, 5-[2-(4-(2-Methyl-8-oxo-1(8H)-cycloheptimidazolyl)methylbiphenylyl)]tetrazole] | 7.95

same assay, conditions: isolated rabbit thoracic aorta contracted by angiotensin II; from dose-response curve (Schild); read-out: pA2 (converted)

Compound | Kb [nM]
CCCCc1nc2c(n1Cc1ccc(-c3ccccc3-c3nn[nH]n3)cc1)C(=O)CCCC2 [18 - K salt] | 0.316
CCc1nc2ccccc(=O)c2n1Cc1ccc(-c2ccccc2-c2nn[nH]n2)cc1 [Compound 2, 5-[2-(4-(2-Ethyl-8-oxo-1(8H)-cycloheptimidazolyl)methylbiphenylyl)]tetrazole] | 2
CCCc1nc2ccccc(=O)c2n1Cc1ccc(-c2ccccc2-c2nn[nH]n2)cc1 [Compound 3, 5-[2-(4-(2-Propyl-8-oxo-1(8H)-cycloheptimidazolyl)methylbiphenylyl)]tetrazole] | 0.331
CCCCc1nc2ccccc(=O)c2n1Cc1ccc(-c2ccccc2-c2nn[nH]n2)cc1 [Compound 4, 5-[2-(4-(2-Butyl-8-oxo-1(8H )-cycloheptimidazolyl)methylbiphenylyl)]tetrazole] | 0.501
CC(C)c1nc2ccccc(=O)c2n1Cc1ccc(-c2ccccc2-c2nn[nH]n2)cc1 [Compound 9, 5-[2-(4-(2-Isopropyl-8-oxo-1(8H)-cycloheptimidazolyl)methylbiphenylyl)]tetrazole] | 7.59
CCCCc1nc2c(n1Cc1ccc(-c3ccccc3-c3nn[nH]n3)cc1)CCCCC2 [Compound 11, 5-[2-(4-(2-Butyl-1,4,5,6,7,8-hexahydro-1-cycloheptimidazolyl)methylbiphenylyl)]tetrazole] | 20
Cc1nc2c(n1Cc1ccc(-c3ccccc3-c3nn[nH]n3)cc1)C(=O)CCCC2 [Compound 15, 5-[2-(4-(2-Methyl-8-oxo-5,6,7,8-tetrahydro-1-cycloheptimidazolyl)methylbiphenylyl)]tetrazole] | 5.01
CCc1nc2c(n1Cc1ccc(-c3ccccc3-c3nn[nH]n3)cc1)C(=O)CCCC2 [Compound 16, 5-[2-(4-(2-Ethyl-8-oxo-5,6,7,8-tetrahydro-1-cycloheptimidazolyl)methylbiphenylyl)]tetrazole] | 1
CCCc1nc2c(n1Cc1ccc(-c3ccccc3-c3nnn[nH]3)cc1)C(=O)CCCC2 [Compound 17, 5-[2-(4-(2-Propyl-8-oxo-5,6,7,8-tetrahydro-1-cycloheptimidazolyl)methylbiphenylyl)]tetrazole] | 0.126
CCCCc1nc2c(n1Cc1ccc(-c3ccccc3-c3nn[nH]n3)cc1)C(=O)CCCC2 [Compound 18, 5-[2-(4-(2-Butyl-8-oxo-5,6,7,8-tetrahydro-1-cycloheptimidazolyl)methylbiphenylyl)]tetrazole] | 0.501
CCCCCc1nc2c(n1Cc1ccc(-c3ccccc3-c3nn[nH]n3)cc1)C(=O)CCCC2 [Compound 19, 5-[2-(4-(2-Pentyl-8-oxo-5,6,7,8-tetrahydro-1-cycloheptimidazolyl)methylbiphenylyl)]tetrazole] | 0.398
CCCCc1nc2c(n1Cc1ccc(-c3ccccc3-c3nn[nH]n3)cc1)CCCCC2=O [Compound 20, 5-[2-(4-(2-Butyl-4-oxo-5,6,7,8-tetrahydro-1-cycloheptimidazolyl)methylbiphenylyl)]tetrazole] | 63.1
CC(C)c1nc2c(n1Cc1ccc(-c3ccccc3-c3nn[nH]n3)cc1)C(=O)CCCC2 [Compound 24] | 1.78
CC(C)Cc1nc2c(n1Cc1ccc(-c3ccccc3-c3nn[nH]n3)cc1)C(=O)CCCC2 [Compound 25] | 0.851
CCCCc1nc2c(n1Cc1ccc(-c3ccccc3-c3nn[nH]n3)cc1)C(O)CCCC2 (centres unmarked) [Compound 26, 5-[2-(4-(2-Butyl-8-hydroxy-1,4,5,6,7,8-hexahydro-1-cycloheptimidazolyl)methylbiphenylyl)]tetrazole] | 9.77
CCCCc1nc2c(n1Cc1ccc(-c3ccccc3-c3nn[nH]n3)cc1)CCCCC2O (centres unmarked) [Compound 27, 5-[2-(4-(2-Butyl-4-hydroxy-1,4,5,6,7,8-hexahydro-1-cycloheptimidazolyl)methylbiphenylyl)]tetrazole] | 63.1

From patent US5409947A, “Cycloheptimidazole derivatives, method of manufacturing the same and therapeutic agents containing these compounds” (Kotobuki Seiyaku Co., Ltd., priority 1992, dated 1995)
